Positions count from the first letter of the chain named.
Tests used:
Assay type in all cases: biochemical
[1] = tested on: bovine gamma crystallins; test: Screen: H2O2 and heat mediated aggregation of bovine gamma crystallins, turbidimetry at 600 nm; conditions: bovine γ-crystallin-rich proteins, oxidant stress 24 h and/or thermal stress 72 °C 20 min
Protocol: For the initial screen, a microtiter plate assay was developed in which bovine crystallins (2 mg/ml of 50 mM K3PO4 buffer, pH 7.2 [buffer A]) were exposed to H2O2 at varying concentrations (1–50 mM) for 12 to 36 h, upon which turbidity developed (at 50 mM H2O2 concentration) in both β- and γ-crystallins (Fig. 1, A and B). […] This was determined by turbidimetry at 600 nm (Fig. 1C) and confirmed using visual assessment of solution transparency over a fine text as well as the presence of cloudy aggregates visible by dark field microscopy (Fig. 1D). The drug:protein stoichiometric ratio was about 5:1. The wavelength of 600 nm was chosen to minimize interference by colored compounds, many of which absorb below 500 nm (Fig. 1E).
Wells were filled with 90 μl calf γ-crystallin-rich protein solution (pool 4 at 2 mg/ml) followed by 0.5 to 5.0 μl of drug (all 10 mM stock solution in DMSO) as supplied by the manufacturer and 10 μl H2O2 (450 mM stock solution in water) and sealed with sticky Applied Biosystems MicroAmp Clear Adhesive films (Life Technologies). Control wells received DMSO only. […] In order to quantitate the impact of the drugs on aggregation, a fitness plot was created (Fig. 1 C) that allowed us to identify wells with enhanced/worsening versus suppressed crystallin aggregation. In addition, aggregation in each well was also visually assessed by two independent “blinded” readers for the ability to read fine print through each well by placing the plates over small font text (Fig. 1D). Both machine and visual readouts were reconciled in order to increase robustness.

[2] = target: T1, WT-HγD crystallin (Homo sapiens, UniProt P07320); test: Dynamic light scattering of thermally stressed WT-HγD; conditions: for Size (radius) of aggregates: 50 μM WT-HγD, 400 μM drug, 72 °C 20 min, 7261 nm without drugs
T1 construct: made in house; host or cells: E. coli BL21(DE3) pLysS, pET3d vector
T1 sequence (P07320 1-174): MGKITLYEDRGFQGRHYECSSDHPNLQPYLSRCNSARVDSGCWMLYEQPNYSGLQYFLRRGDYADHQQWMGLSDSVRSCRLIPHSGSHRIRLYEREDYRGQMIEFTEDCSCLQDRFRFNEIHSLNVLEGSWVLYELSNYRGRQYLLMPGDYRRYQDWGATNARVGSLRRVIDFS
Protocol: Efficacy of our selected drugs in preventing the formation of protein aggregates was measured by DLS. Measurements were performed on a Wyatt DynaPro Nanostar. For DLS temperature scan experiment, pure and filtered protein samples (1 mg/ml in 10 mM sodium phosphate buffer, pH 7.2) with and without drugs (400 μM) were analyzed by DLS over a temperature range of 30 to 90 °C. Multiple scans were run for every data point, and the results represent average of individual scans. DLS spectra were also recorded for the samples at the end point of turbidity assay.

[3] = tested on: Total mouse gamma crystallins; test: H2O2 oxidation-mediated aggregation of total mouse γ-crystallins, 600 nm; conditions: 2.5 mg/ml, H2O2, 18 h at 37 °C
Protocol: In preparation for possible in vivo testing, the drugs were tested against native mouse γ-crystallins. Total gamma crystallins (2.5 mg/ml) were incubated with H2O2 for 18 h at 37 °C with increasing concentrations of drugs X, C, and G, or a combination thereof. Oxidative stress–mediated aggregation at 600 nm was suppressed by drug C but poorly by drug G (Fig. S4A, left panel). […] The baseline increase at 50 μM could reflect a destabilizing effect of the drugs because of a pro-oxidative mechanism followed by stabilizing chaperone-like effect. […] There is 52.6% more aggregation of OPJ-MγS in comparison to WT-MγS under same conditions of thermal stress. […] Fluorescence microscopy using Nile Red provides a pictorial rendition of the type and size of aggregates formed on heating WT-MγS and OPJ-MγS, with and without drugs (Fig. S4F). […] The bis-ANS fluorescence inhibition pattern is again in complete agreement with the previous results for HγD (Fig. 2F). […] As for the reproducibility of these findings, see Fig. S7 and the warning note under Rigor and reproducibility section.

[4] = target: T2, OPJ-MγS (Mus musculus, UniProt O35486, F10S); test: Thermal unfolding (Tm), OPJ-MγS; conditions: 10 μM protein, 100 μM drug; for Tm (°C) OPJ-MGS N-ter: Con 48; for Tm (°C) OPJ-MGS C-ter: Con 63
T2 construct: made in house; host or cells: E. coli BL21(DE3) pLysS, pET17b vector
T2 sequence (O35486 1-178 F10S): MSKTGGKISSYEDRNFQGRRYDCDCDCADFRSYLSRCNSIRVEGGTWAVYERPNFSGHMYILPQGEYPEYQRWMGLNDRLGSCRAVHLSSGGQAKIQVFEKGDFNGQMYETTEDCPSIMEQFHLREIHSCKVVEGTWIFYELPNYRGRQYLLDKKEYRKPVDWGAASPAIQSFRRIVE
Protocol: (§1) Thermal denaturation study was monitored using fluorescence spectroscopy. Protein solutions (10 μM) in the presence and absence of drugs or bis-ANS (100 μM) were heated continuously from 30 to 95 °C, and the fluorescence data were collected every 5 °C after 1 min equilibration at the given temperature. Unfolding data were fit to Greene and Pace’s two-state model ([82]) using GraphPad Prism software (GraphPad Software, Inc).

[5] = target: T1, WT-HγD crystallin; test: Thermal unfolding of WT-HγD by fluorescence ratio (Tm); conditions: for Tm: 10 μM WT-HγD, 100 μM drug, fluorescence ratio 360/330 nm, control 81 °C; for Tm of HγD-nat: 100 μM agent, 360/320 nm ratio, 78 ± 0.1 °C without agent; for Elevation of Tm of HγD: versus control 81 °C
Excerpt: His-tag free recombinant HγD crystallin produced in Escherichia coli using pET3d or pET17b expression vector was used to investigate the effects of compounds C and G against thermal-induced unfolding and aggregate formation. The antiaggregation potency of drug C and G was reconfirmed by dynamic light scattering (DLS) (Fig. 2A). […] There is a decrease in the size of aggregates from as high as 7261 nm without drugs to 30.5 nm with drug C and 84.9 nm with drug G. Drug M has moderate activity with mean aggregate size of 569 nm radius (Table S2). […] Furthermore, we investigated whether these drugs can prevent thermal unfolding of HγD (Fig. 2C). […] It is the temperature at which 50% of the protein unfolds.
as §1

[6] = target: T3, WT-MγS (Mus musculus, UniProt O35486); test: Thermal unfolding (Tm), WT-MγS; conditions: 10 μM protein, 100 μM drug; Con 70
T3 construct: made in house; host or cells: E. coli BL21(DE3) pLysS, pET17b vector
T3 sequence (O35486 1-178): T2 sequence (O35486 1-178 F10S) with S10F
Protocol: as §1

[7] = WT-HγD, end point of thermal stress 72 °C 20 min

| Percent Mass Peak 2 [2, 7] [%] | Radius (nm) Peak 2 [2, 7] [nm] | Structure (SMILES) | Antiaggregation activity [1] | Size (radius) of aggregates [2] [nm] | Percent Mass Peak 1 [2, 7] [%] | Radius (nm) Peak 1 [2, 7] [nm] | Oxidative stress–mediated aggregation at 600 nm [3] | Tm (°C) OPJ-MGS N-ter [4] [°C] | Tm (°C) OPJ-MGS C-ter [4] [°C] | Tm [5] [°C] | Tm of HγD-nat [5] | Elevation of Tm of HγD [5] [°C] | Tm (°C) WT-MGS [6] [°C] |
| --- | --- | --- | --- | --- | --- | --- | --- | --- | --- | --- | --- | --- | --- |
| – | – | COC(=O)/C=C/C(C)=C\C=C\C(C)=C\C=C\C=C(C)\C=C\C=C(C)\C=C\C(=O)O [drug B, Bixin] | Medium heat shock inhibitor | – | – | – | – | – | – | – | – | – | – |
| – | – | Cc1cc(C(C#N)c2ccc(Cl)cc2)c(Cl)cc1NC(=O)c1cc(I)cc(I)c1O (stereo not drawn) [drug C, Closantel] | Medium strong dual inhibitor | 30.5 | 100 | 30.5 | suppressed | 50 | 69 | 85 | increased all Tm values to the maximum value | 4 | 72 |
| – | – | CC(C)=CCCC1(C)C=Cc2c(O)c3c(c(CC=C(C)C)c2O1)OC12C(=CC4CC1C(C)(C)OC2(C/C=C(/C)C(=O)O)C4O)C3=O (stereo not drawn) [drug D, dihydrogambogic acid] | Strong heat shock inhibitor | – | – | – | – | – | – | – | – | – | – |
| – | – | CC(C)=CCC[C@]1(C)C=Cc2c(O)c3c(c(CC=C(C)C)c2O1)O[C@]12C(=C[C@@H]4C[C@H]1C(C)(C)O[C@@]2(C/C=C(/C)C(=O)O)C4=O)C3=O [drug G, Gambogic acid] | Strong heat shock inhibitor | 84.9 | 100 | 84.9 | poorly | 50 | 70 | 85 | increased all Tm values to the maximum value | 4 | 73 |
| 87.3 | 568.5 | O=C(O)CCCCCCCCCCCC[C@@H]1C=CCC1 [drug M, Chaulmoogric acid] | Dual heat shock inhibitor + antioxidant | 569 | 12.7 | 10.9 | – | 48 | 63 | – | – | – | 68 |

— publication PMC9525908, “α-Crystallin chaperone mimetic drugs inhibit lens γ-crystallin aggregation: Potential role for cataract prevention” (The Journal of Biological Chemistry, 2022)
